Source: paper PMC12364115, “High-throughput virtual screening, identification and in vitro biological evaluation of novel inhibitors of PLK1 and NRP1” (Journal of Enzyme Inhibition and Medicinal Chemistry, 2025)
Each block holds one compound with its values, some of them ahead of it.

Columns and labels:
NRP1 = target: T1, NRP1 (Homo sapiens, UniProt O14786); experiment: NRP1 inhibition assay (125I-VEGF-A165 binding, HUVEC cells transfected with NRP1)
T1 construct: expressed in transfected cells; host or cells: HUVEC
Description: The method was as previously described. Briefly, HUVEC cells transfected with NRP1 were added to a 96-well plate and after growing to confluence, and the compounds were added to each well at different concentrations. Then, the ^125I-VEGF-A165 (0.1 nM) was added to measure non-specific binding. Data curves were plotted and half maximal inhibitory concentrations (IC50) were derived for the selected compounds using Prism 6.0 software.

PLK1 = target: T2, PLK1 (Homo sapiens, UniProt P53350); experiment: PLK1 inhibition assay; type: biochemical
T2 construct: purchased Abcam (Cambridge, MA, USA)
Description: The method was as previously described. Briefly, the enzyme reaction mixture containing different doses of compounds was incubated for 90 min at room temperature. Then the mixture was transferred to a Neutravidin-coated 384-well plate and incubated for 60 min at room temperature. Then the wells were incubated with 50 μL of the antibody mixture for 1 h. The bound europium was liberated using 50 μL of Enhancement Solution.

A549 cells = experiment: MTT assay A549; type: cell-based; settings: Homo sapiens, 72 h treatment, mean ± SD, n = 3
Description: (§1) The lung cancer cells NCI-H460 (large cell lung carcinoma), A549 (adenocarcinoma), A427 (adenocarcinoma) and normal lung cells BEAS-2B (human normal lung epithelial cells) were purchased from The American Type Culture Collection (ATCC) (Manassas, VA, USA). The cells were cultured with Roswell Park Memorial Institute (RPMI) ‐1640 medium. The temperature of the cell culture was maintained at 37 °C. Hit compounds were obtained commercially from WuXi AppTec (PLN-1, Lot NO: P112561-P1; PLN-2, Lot NO: P112561-P2; PLN-3, Lot NO: P112561-P3; PLN-4, Lot NO: P112561-P4; PLN-5, Lot NO: P112561-P5) (Table S1). The purity of PLN 1-5 was more than 98% as determined by HPLC (Supplementary material). Human PLK1 and NRP1 proteins were purchased from Abcam (Cambridge, MA, USA).
(§2) Cells were seeded in 96-well plates (5 × 10^4 cells/well) and incubated overnight. Cells were incubated with different concentrations of PLN-5 at 37 °C for 72 h. After removal of the medium, MTT stock solution (5 mg/ml) was added and the incubation continued for 4 h. After centrifugation, the insoluble crystals were dissolved in dimethyl sulfoxide and gently shaken for 15 min. Finally, absorbance was measured at 570 nm using a microplate reader. The IC50 were calculated using Prism 6.0 software.

PLK3 = target: T3, PLK3 (Homo sapiens, UniProt Q9H4B4); experiment: In vitro selectivity assay PLK3; type: biochemical; settings: n = 3
T3 construct: ICE Bioscience Inc (Beijing, China) (performed the assay)
Description: (§3) To assess the selectivity of PLN-5, we systematically determined its inhibitory activity against PLK2, PLK3, PLK4 (homologues of PLK1) and […]. This assay was performed by ICE Bioscience Inc (Beijing, China).

PLK4 = target: T4, PLK4 (Homo sapiens, UniProt O00444); experiment: In vitro selectivity assay PLK4; type: biochemical
T4 construct: ICE Bioscience Inc (Beijing, China) (performed the assay)
T4 sequence (O00444 1-970): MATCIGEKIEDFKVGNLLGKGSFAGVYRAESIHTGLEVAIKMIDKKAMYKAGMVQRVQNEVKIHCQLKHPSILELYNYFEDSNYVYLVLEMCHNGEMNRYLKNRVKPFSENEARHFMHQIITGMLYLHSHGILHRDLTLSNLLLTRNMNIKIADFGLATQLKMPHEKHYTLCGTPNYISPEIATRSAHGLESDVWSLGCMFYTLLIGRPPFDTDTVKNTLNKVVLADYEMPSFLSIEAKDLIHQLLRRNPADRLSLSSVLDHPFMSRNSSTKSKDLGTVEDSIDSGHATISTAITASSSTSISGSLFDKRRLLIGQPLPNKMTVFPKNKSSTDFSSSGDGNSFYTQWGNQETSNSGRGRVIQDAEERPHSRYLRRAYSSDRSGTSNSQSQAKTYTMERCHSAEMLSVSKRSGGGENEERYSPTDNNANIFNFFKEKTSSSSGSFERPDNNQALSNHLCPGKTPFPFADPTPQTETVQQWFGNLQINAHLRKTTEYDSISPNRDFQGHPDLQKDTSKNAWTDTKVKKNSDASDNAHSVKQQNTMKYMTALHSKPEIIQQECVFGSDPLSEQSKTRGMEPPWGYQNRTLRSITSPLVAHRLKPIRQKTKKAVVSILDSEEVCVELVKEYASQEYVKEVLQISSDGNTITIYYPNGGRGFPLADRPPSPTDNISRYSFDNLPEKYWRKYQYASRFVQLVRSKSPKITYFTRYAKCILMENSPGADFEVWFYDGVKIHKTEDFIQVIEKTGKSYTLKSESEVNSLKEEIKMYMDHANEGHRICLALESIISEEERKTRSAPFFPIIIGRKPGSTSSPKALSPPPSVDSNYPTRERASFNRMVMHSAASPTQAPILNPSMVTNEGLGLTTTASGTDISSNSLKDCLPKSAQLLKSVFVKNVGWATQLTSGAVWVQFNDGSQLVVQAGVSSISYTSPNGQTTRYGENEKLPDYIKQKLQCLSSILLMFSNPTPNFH
Description: as §3

PLK2 = target: T5, PLK2 (Homo sapiens, UniProt Q9NYY3); experiment: In vitro selectivity assay PLK2; type: biochemical
T5 construct: ICE Bioscience Inc (Beijing, China) (performed the assay)
Description: as §3

A427 cells = experiment: MTT assay A427; type: cell-based; settings: Homo sapiens, A-427, 72 h treatment, mean ± SD, n = 3
Description: as §1, §2

BEAS-2B cells = experiment: MTT assay BEAS-2B; type: cell-based, human; settings: normal lung cells, 72 h treatment, n = 3
Description: as §1, §2

NCI-H460 cells = experiment: MTT assay NCI-H460; type: cell-based, human
Description: as §1, §2

NRP2 = target: T6, NRP2 (Homo sapiens, UniProt O60462); experiment: In vitro selectivity assay NRP2; type: biochemical; settings: n = 3
T6 construct: ICE Bioscience Inc (Beijing, China) (performed the assay)
T6 sequence (O60462 21-931): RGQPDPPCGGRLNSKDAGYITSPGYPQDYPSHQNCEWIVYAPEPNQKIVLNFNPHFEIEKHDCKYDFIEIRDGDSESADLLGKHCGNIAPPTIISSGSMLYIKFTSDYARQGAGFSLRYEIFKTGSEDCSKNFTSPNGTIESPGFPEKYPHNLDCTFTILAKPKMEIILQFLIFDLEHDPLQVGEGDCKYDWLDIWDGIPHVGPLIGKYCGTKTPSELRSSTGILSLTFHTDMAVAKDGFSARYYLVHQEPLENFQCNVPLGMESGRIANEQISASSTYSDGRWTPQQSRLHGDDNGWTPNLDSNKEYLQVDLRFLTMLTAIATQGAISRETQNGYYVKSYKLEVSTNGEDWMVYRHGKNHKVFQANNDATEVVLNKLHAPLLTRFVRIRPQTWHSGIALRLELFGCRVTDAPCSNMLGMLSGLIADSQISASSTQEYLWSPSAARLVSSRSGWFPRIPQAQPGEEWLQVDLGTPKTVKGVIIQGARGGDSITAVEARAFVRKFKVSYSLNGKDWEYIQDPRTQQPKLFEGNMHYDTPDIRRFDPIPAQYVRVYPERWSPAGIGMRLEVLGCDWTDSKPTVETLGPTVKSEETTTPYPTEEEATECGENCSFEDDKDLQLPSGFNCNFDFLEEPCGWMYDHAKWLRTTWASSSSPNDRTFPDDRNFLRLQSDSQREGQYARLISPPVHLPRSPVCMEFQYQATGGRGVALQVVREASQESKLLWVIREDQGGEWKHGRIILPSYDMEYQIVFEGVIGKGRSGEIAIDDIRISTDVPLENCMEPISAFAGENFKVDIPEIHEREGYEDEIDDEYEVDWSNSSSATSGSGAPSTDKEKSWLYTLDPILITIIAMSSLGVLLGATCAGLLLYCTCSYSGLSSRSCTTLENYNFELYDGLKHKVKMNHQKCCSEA
Description: as §3

T2 sequence (P53350 whole entry): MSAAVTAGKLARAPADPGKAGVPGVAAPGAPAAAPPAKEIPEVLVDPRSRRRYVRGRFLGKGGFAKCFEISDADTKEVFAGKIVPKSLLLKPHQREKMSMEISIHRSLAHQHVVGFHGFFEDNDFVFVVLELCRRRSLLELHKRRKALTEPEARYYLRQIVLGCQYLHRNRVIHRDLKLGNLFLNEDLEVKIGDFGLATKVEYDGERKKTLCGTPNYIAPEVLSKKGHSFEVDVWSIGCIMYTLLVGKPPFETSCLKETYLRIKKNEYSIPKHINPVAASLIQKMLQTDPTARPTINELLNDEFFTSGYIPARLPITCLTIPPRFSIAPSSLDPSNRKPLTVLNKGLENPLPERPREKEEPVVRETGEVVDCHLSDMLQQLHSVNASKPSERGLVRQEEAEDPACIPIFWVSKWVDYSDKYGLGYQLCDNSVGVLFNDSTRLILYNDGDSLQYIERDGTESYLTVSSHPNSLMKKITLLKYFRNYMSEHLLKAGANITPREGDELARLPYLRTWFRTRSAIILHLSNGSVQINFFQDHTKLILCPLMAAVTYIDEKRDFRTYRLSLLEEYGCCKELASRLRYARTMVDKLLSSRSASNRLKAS
T1 sequence (O14786 22-923): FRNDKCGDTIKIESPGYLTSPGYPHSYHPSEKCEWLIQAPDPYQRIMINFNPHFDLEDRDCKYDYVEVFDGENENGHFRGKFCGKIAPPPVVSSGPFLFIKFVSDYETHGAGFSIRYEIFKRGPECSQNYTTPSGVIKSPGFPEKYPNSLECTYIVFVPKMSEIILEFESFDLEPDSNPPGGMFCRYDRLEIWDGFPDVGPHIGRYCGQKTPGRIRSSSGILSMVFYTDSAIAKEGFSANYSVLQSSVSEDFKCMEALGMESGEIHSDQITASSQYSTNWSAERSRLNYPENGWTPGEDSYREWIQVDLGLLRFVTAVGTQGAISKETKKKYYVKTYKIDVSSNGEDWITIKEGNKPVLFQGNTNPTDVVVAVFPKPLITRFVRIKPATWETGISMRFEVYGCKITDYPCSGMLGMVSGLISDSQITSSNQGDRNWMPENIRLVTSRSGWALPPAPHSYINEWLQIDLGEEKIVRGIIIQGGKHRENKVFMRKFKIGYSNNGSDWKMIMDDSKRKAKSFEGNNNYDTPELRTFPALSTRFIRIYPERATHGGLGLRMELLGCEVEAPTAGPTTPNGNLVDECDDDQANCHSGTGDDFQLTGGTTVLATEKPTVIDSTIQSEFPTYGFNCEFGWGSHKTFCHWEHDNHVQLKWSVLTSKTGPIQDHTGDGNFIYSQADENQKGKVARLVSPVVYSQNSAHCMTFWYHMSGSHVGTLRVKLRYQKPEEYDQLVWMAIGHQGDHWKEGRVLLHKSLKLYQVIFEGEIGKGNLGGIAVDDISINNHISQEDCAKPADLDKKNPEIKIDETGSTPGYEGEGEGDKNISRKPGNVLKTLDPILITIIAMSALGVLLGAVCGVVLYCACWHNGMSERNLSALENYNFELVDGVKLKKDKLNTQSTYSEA
T3 sequence (Q9H4B4 whole entry, species assumed): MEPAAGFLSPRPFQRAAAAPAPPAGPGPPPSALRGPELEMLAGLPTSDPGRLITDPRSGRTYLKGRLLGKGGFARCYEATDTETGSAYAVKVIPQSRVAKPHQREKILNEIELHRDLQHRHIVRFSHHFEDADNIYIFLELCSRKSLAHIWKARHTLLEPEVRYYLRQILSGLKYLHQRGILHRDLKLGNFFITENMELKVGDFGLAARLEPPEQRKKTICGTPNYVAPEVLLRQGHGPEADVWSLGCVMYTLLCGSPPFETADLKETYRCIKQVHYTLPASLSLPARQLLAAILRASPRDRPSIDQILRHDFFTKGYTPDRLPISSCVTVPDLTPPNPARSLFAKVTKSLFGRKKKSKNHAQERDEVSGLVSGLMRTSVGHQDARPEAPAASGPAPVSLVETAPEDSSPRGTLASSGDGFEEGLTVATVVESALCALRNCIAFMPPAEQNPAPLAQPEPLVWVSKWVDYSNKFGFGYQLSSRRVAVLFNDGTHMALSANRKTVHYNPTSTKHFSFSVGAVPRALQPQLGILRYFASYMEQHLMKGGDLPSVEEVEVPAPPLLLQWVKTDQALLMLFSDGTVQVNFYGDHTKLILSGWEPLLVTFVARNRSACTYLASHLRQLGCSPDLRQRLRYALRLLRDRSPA
T5 sequence (Q9NYY3 whole entry, species assumed): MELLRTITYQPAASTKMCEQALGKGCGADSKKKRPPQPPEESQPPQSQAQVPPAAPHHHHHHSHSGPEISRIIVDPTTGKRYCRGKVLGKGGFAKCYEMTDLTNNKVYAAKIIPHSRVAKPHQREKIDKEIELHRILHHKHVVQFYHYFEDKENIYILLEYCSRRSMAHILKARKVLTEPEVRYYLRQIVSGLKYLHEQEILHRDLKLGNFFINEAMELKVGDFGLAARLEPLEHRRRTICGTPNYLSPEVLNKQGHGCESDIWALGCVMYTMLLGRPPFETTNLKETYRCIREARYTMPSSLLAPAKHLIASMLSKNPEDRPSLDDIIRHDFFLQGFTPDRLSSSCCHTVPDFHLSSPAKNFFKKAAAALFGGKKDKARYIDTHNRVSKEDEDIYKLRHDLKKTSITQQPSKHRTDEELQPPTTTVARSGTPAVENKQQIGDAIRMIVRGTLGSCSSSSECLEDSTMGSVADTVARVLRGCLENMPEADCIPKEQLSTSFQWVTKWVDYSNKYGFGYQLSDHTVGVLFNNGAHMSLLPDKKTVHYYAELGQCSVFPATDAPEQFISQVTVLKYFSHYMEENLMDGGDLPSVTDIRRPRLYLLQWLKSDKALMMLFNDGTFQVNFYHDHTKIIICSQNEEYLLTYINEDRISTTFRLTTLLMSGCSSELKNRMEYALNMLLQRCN

SMILES: NC(N)=NCCC[C@H](NC(=O)c1sccc1NS(=O)(=O)c1cccc2nsnc12)C(=O)O [EG00229, reference compound]
- IC50 (NRP1; mean ± SD, n = 3): 640 ± 20.8 nM
- PLK1 (IC50, nM) (PLK1; mean ± SD, n = 3): no inhibition

SMILES: CN1CCN(c2ccc(OC(F)(F)F)c(Nc3ncc4c(n3)-c3c(c(C(N)=O)nn3CCO)CC4)c2)CC1 [Onvansertib, onvansertib, reference compound]
- NRP1 (IC50, nM) (NRP1; mean ± SD, n = 3): no inhibition

SMILES: NC(N)=NCCC[C@H](NC(=O)CCCCCc1cncc(Nc2ncc3c(n2)-c2ccc(Cl)cc2NC(=O)C3)c1)C(=O)O [PLN-2]
- IC50 (NRP1; mean ± SD, n = 3): 24.3 ± 1.29 nM
- IC50 (PLK1; mean ± SD, n = 3): 16.5 ± 2.86 nM

SMILES: COc1ncc(Nc2ncc3c(n2)-c2ccc(Cl)cc2NC(=O)C3)cc1CCCCCC(=O)N[C@@H](CCCN=C(N)N)C(=O)O [PLN-3]
- IC50 (NRP1; mean ± SD, n = 3): 30.5 ± 2.55 nM
- IC50 (PLK1; mean ± SD, n = 3): 11.4 ± 0.74 nM

Continued, in another order:

- IC50 (NRP1; mean ± SD, n = 3): 12.7 ± 0.81 nM
- IC50 (PLK1; mean ± SD, n = 3): 8.12 ± 0.34 nM
SMILES: Cc1ncc(CCCN(C)CC(=O)N[C@@H](CCCN=C(N)N)C(=O)O)cc1Nc1ncc2c(n1)-c1ccc(C#N)cc1NC(=O)C2 [PLN-1]

- IC50 (NRP1; mean ± SD, n = 3): 7.83 ± 0.42 nM
- IC50 (PLK1; mean ± SD, n = 3): 4.51 ± 0.26 nM
SMILES: CCc1ccc2c(c1)NC(=O)Cc1cnc(Nc3cc(CCCN(C)CC(=O)N[C@@H](CCCN=C(N)N)C(=O)O)cnc3C)nc1-2 [PLN-4]

- IC50 (A549 cells): 0.41 ± 0.03 µM
- IC50 (PLK3): > 10 µM
- IC50 (PLK4): > 10000 nM
- IC50 (NRP1; mean ± SD, n = 3): 5.15 ± 0.24 nM
- NRP1 potency relative to EG00229 (NRP1; ratio of IC50 values vs positive control EG00229): ~124 fold
- IC50 (PLK2): > 10000 nM
- IC50 (NCI-H460 cells; Homo sapiens, NCI-H460, 72 h treatment, MTT, mean ± SD, n = 3): 0.27 ± 0.02 µM
- IC50 (NRP2): > 10 µM
- IC50 (PLK1; mean ± SD, n = 3): 2.07 ± 0.13 nM
- PLK1 potency relative to onvansertib (PLK1; ratio of IC50 values vs positive control onvansertib): approximately 9 fold
SMILES: Cc1ncc(CCCN(C)CC(=O)N[C@@H](CCCN=C(N)N)C(=O)O)cc1Nc1ncc2c(n1)-c1ccc(Cl)cc1NC(=S)C2 [PLN-5]
- IC50 (A427 cells): 0.33 ± 0.02 µM
- IC50 (BEAS-2B cells; Homo sapiens, BEAS-2B): > 10 µM
- IC50 (μM) BEAS-2B (BEAS-2B cells): no significant inhibitory effect
- cell survival rate of NCI-H460 cells (NCI-H460 cells; 2 μM compound): lowest survival rate
- inhibition rate against NCI-H460 cells (NCI-H460 cells; MTT assay): more than 90%
